According to patent publication US12060349B2, “Glucosylceramide synthase inhibitors” (Genzyme Corporation, priority 2012, dated 2024):
Read-outs that look alike come from different tables or passages of the source.

How the values were obtained:
[1] = system: GM3 expression on the cell surface, C32 human melanoma cells; test: cell based phenotypic assay, cell surface GM3 by antibody mediated immunofluorescence, C32 (GM3 C32 IC50); conditions: C32 human melanoma cells, 50% inhibition of GM3 expression on the cell surface, read-out: GM3 C32 IC50
Protocol: (§1) The cell based assay was performed in two different cell types, B16 and C32. Cell viability was also assessed in the second, cell-based assay.
(§2) The “Compound Number” in the table corresponds to the compound disclosed in the Example of the same number. […] The results of the cell based assays (performed in two different cell systems, i.e. B16 mouse melanoma or C32 human melanoma cells) are expressed as “GM3 B16 IC50” or “GM3 C32 IC50” for the B16 assay and the C32 assay, respectively. […] The results of the viability assays are expressed as “Viability, B16 IC50” or “Viability, C32 IC50”, respectively. These values represent the concentration of the compound causing 50% cell death. Values greater than 10 represent a lack of cell death.

[2] = system: B16 mouse melanoma cells; test: cell viability in the B16 cell-based assay (Viability, B16 IC50); conditions: concentration causing 50% cell death, values greater than 10 represent a lack of cell death, read-out: Viability, B16 IC50
Protocol: as §1, §2

[3] = system: C32 human melanoma cells; test: cell viability in the C32 cell-based assay (Viability, C32 IC50); conditions: concentration causing 50% cell death, values greater than 10 represent a lack of cell death, read-out: Viability, C32 IC50
Protocol: as §1, §2

[4] = target: T1, glucosylceramide synthase (Homo sapiens, UniProt Q16739); test: microsomal assay measuring conversion of ceramide to glucosylceramide by HPLC (GCS IC50); assay type: biochemical; conditions: concentration causing 50% inhibition of glucosylceramide synthase activity
T1 construct: Microsomes were isolated from A375 human melanoma cells; endogenous in cells; host or cells: A375 human melanoma cells (microsomal fraction, 100,000 g pellet)
T1 sequence (Q16739 1-394): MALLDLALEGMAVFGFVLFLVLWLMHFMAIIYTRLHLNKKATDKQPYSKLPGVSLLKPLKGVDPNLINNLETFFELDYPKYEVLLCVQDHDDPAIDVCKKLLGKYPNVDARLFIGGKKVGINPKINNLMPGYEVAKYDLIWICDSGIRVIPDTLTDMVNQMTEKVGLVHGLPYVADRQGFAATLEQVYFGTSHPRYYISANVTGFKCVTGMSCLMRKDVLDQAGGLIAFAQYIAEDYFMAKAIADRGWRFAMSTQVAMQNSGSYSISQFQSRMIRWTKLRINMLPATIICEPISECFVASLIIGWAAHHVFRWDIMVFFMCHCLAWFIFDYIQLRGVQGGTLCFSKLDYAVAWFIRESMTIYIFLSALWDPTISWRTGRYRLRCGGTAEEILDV
Protocol: Inhibition of glucosylceramide synthase activity for certain compounds of the invention were measured with 1) a microsomal assay that directly measures the conversion of ceramide to glucosylceramide by HPLC and 2) second, cell based, phenotypic assay that monitors cell surface expression of the downstream lipid GM3 by antibody mediated immunofluorescence. The cell based assay was performed in two different cell types, B16 and C32. Cell viability was also assessed in the second, cell-based assay.
The “Compound Number” in the table corresponds to the compound disclosed in the Example of the same number. The results of the microsomal assay are expressed as “GCS IC50”, which represents the concentration of the compound causing 50% inhibition of glucosylceramide synthase activity. The results of the cell based assays (performed in two different cell systems, i.e. B16 mouse melanoma or C32 human melanoma cells) are expressed as “GM3 B16 IC50” or “GM3 C32 IC50” for the B16 assay and the C32 assay, respectively. These values represent the concentration of the compound causing 50% inhibition of GM3 expression on the cell surface. The results of the viability assays are expressed as “Viability, B16 IC50” or “Viability, C32 IC50”, respectively. These values represent the concentration of the compound causing 50% cell death. Values greater than 10 represent a lack of cell death.

[5] = system: GM3 expression on the cell surface, B16 mouse melanoma cells; test: cell based phenotypic assay, cell surface GM3 by antibody mediated immunofluorescence, B16 (GM3 B16 IC50); conditions: B16 mouse melanoma cells, 50% inhibition of GM3 expression on the cell surface, read-out: GM3 B16 IC50
Protocol: as §1, §2

Row | SMILES | IC50 [1] | IC50 [4] | IC50 [5] | IC50 ([2]; B16 cells) | IC50 ([3]; C32 cells) | IC50 ([2]; Mus musculus, B16, B16 cells) | IC50 ([3]; Homo sapiens, C32, C32 cells) | IC50 ([1]; Homo sapiens) | IC50 ([5]; Mus musculus)
1 | CC1(NC(=O)C2CCN(c3cncc(-c4ccc(F)cc4)n3)CC2)CCN2CCC1CC2 (single isomer, unassigned) [Example 47, 1-(6-(4-Fluorophenyl)pyrazin-2-yl)-N-(4-methyl-1-azabicyclo[3.2.2]nonan-4-yl)piperidine-4-carboxamide] | 50 nM | 258 nM | 2190 nM | – | 3160 nM | 7830 nM | – | – | –
2 | COCCOCc1ccc(-c2nc(N3CCC(F)(C(=O)NC4(C)CCN5CCC4CC5)CC3)ncc2F)cc1 (single isomer, unassigned) [Example 78, 4-Fluoro-1-(5-fluoro-4-(4-((2-methoxyethoxy)methyl)phenyl)pyrimidin-2-yl)-N-(4-methyl-1-azabicyclo[3.2.2]nonan-4-yl)piperidine-4-carboxamide] | 4.87 nM | 64.7 nM | 3120 nM | – | 1000 nM | 3540 nM | – | – | –
3 | C[C@@H]1CN(C(=O)NC2(C)CCN3CCC2CC3)CCN1c1nccc(-c2ccccc2)n1 (single isomer, unassigned) [Example 138] | 63.6 nM | 902 nM | > 10000 nM | – | 3160 nM | 9310 nM | – | – | –
4 | C[C@H]1CN(C(=O)NC2(C)CCN3CCC2CC3)CCN1c1nccc(-c2ccccc2)n1 (single isomer, unassigned) [Example 140] | 574 nM | 46.9 nM | 9080 nM | 6490 nM | 3160 nM | – | – | – | –
5 | CCC1(NC(=O)NC2(c3ccc(-c4ccc(COCCOC)cc4)cc3)CC2)CN2CCC1CC2 (single isomer, unassigned) [Example 208, 1-(3-Ethylquinuclidin-3-yl)-3-(1-(4′-((2-methoxyethoxy)methyl)-[1,1′-biphenyl]-4-yl)cyclopropyl)urea] | 73.9 nM | 2710 nM | 988 nM | – | ≥ 10000 nM | ≥ 10000 nM | – | – | –
6 | CCC1(NC(=O)NC2(c3ccc(-c4ccc(COCCOC)cc4)cc3)CC2)CN2CCC1CC2 (single isomer, unassigned) [Example 209, 1-(3-Ethylquinuclidin-3-yl)-3-(1-(4′-((2-methoxyethoxy)methyl)-[1,1′-biphenyl]-4-yl)cyclopropyl)urea] | 1.05 nM | 17.4 nM | 39.2 nM | ≥ 10000 nM | 1780 nM | – | – | – | –
7 | COCCOc1ccc(-c2ccc(C(C)(C)NC(=O)OC3CCN4CCC3CC4)nc2)cc1 (single isomer, unassigned) [Example 349, 1-Azabicyclo[3.2.2]nonan-4-yl 2-(5-(4-(2-methoxyethoxy)phenyl)pyridin-2-yl)propan-2-ylcarbamate] | 14.4 nM | 250 nM | 233 nM | ≥ 10000 nM | 1000 nM | – | – | – | –
8 | CC1(NC(=O)N2CCN(c3ccc(-c4ccccc4)cc3)CC2)CN2CCC1CC2 (stereo not drawn) [Example 1, 4-([1,1′-Biphenyl]-4-yl)-N-(3-methylquinuclidin-3-yl)piperazine-1-carboxamide] | – | 719 nM | – | – | – | 7160 nM | ≥ 10000 nM | 109 nM | 1260 nM
9 | O=C(NC1CN2CCC1CC2)N1CCN(c2ccc(-c3ccccc3)cc2)CC1 (stereo not drawn) [Example 2, 4-([1,1′-Biphenyl]-4-yl)-N-(quinuclidin-3-yl)piperazine-1-carboxamide] | – | 6930 nM | – | – | – | 5280 nM | 7580 nM | 667 nM | 1600 nM
10 | O=C(NC1CCN2CCC1CC2)N1CCN(c2ccc(-c3ccccc3)cc2)CC1 (stereo not drawn) [Example 3, 4-([1,1′-Biphenyl]-4-yl)-N-(1-azabicyclo[3.2.2]nonan-4-yl)piperazine-1-carboxamide] | – | 10900 nM | – | – | – | 4180 nM | 2510 nM | 1000 nM | 6840 nM
11 | CC1(NC(=O)N2CCN(c3ccc(-c4ccccc4)cc3)CC2)CCN2CCC1CC2 (stereo not drawn) [Example 4, 4-([1,1′-Biphenyl]-4-yl)-N-(4-methyl-1-azabicyclo[3.2.2]nonan-4-yl)piperazine-1-carboxamide] | – | 1000 nM | – | – | – | 6160 nM | 6310 nM | 62.5 nM | 1380 nM
12 | O=C(N1CCN(c2ccc(-c3ccccc3)cc2)CC1)N1CCN2CCC1CC2 [Example 5, (4-([1,1′-Biphenyl]-4-yl)piperazin-1-yl)(1,4-diazabicyclo[3.2.2]nonan-4-yl)methanone] | – | 30000 nM | – | – | – | 2000 nM | 2000 nM | 2000 nM | 2000 nM

Continued by falling IC50 [4], values first:

Row | IC50 [1] | IC50 [4] | IC50 [5] | SMILES | IC50 ([2]; B16 cells) | IC50 ([3]; C32 cells) | IC50 ([2]; Mus musculus, B16, B16 cells) | IC50 ([3]; Homo sapiens, C32, C32 cells) | IC50 ([1]; Homo sapiens) | IC50 ([5]; Mus musculus)
13 | 3.52 nM | 27.8 nM | 87.2 nM | COCCOc1ccc(-c2ccc(C(C)(C)NC(=O)OC3CCN4CCC3CC4)nc2)cc1 (single isomer, unassigned) [Example 348, 1-Azabicyclo[3.2.2]nonan-4-yl 2-(5-(4-(2-methoxyethoxy)phenyl)pyridin-2-yl)propan-2-ylcarbamate] | – | – | ≥ 10000 nM | 1000 nM | – | –
14 | 1.37 nM | 17.3 nM | 67 nM | C[C@H]1CN(C(=O)NC2(C)CCN3CCC2CC3)CCN1c1nccc(-c2ccccc2)n1 (single isomer, unassigned) [Example 139] | – | – | 5250 nM | 3160 nM | – | –
15 | 0.198 nM | 3.2 nM | 50.1 nM | C[C@@H]1CN(C(=O)NC2(C)CCN3CCC2CC3)CCN1c1nccc(-c2ccccc2)n1 (single isomer, unassigned) [Example 137] | 5720 nM | 1000 nM | – | – | – | –
16 | 0.191 nM | 1.8 nM | 109 nM | COCCOCc1ccc(-c2nc(N3CCC(F)(C(=O)NC4(C)CCN5CCC4CC5)CC3)ncc2F)cc1 (single isomer, unassigned) [Example 79, 4-Fluoro-1-(5-fluoro-4-(4-((2-methoxyethoxy)methyl)phenyl)pyrimidin-2-yl)-N-(4-methyl-1-azabicyclo[3.2.2]nonan-4-yl)piperidine-4-carboxamide] | 4280 nM | 215 nM | – | – | – | –
17 | 0.096 nM | 1.61 nM | 47.7 nM | CC1(NC(=O)C2CCN(c3cncc(-c4ccc(F)cc4)n3)CC2)CCN2CCC1CC2 (single isomer, unassigned) [Example 48, 1-(6-(4-Fluorophenyl)pyrazin-2-yl)-N-(4-methyl-1-azabicyclo[3.2.2]nonan-4-yl)piperidine-4-carboxamide] | 7760 nM | 5.17 nM | – | – | – | –
18 | 0.0655 nM | 1.25 nM | 6.54 nM | CC1(NC(=O)C2CCN(c3nccc(-c4ccc(F)cc4)n3)CC2)CCN2CCC1CC2 (single isomer, unassigned) [Example 43, 1-(4-(4-Fluorophenyl)pyrimidin-2-yl)-N-(4-methyl-1-azabicyclo[3.2.2]nonan-4-yl)piperidine-4-carboxamide] | 7140 nM | 8920 nM | – | – | – | –
